Patent US6482824B1, “Use of n-substituted (3,6-dihydro)-2h-1,2-oxazine derivatives as selective mglur1 antagonists” (Eli Lilly and Company, priority 1998, dated 2002)

Experiment: ability of test compounds to treat migraine (as described in U.S. Pat. No. 5,817,671, U.S. Pat. No. 5,792,763 and J. Neurosci. Methods 1998, 81, 19-24)
Settings: in vivo

## CCOc1ccc(C2ON(S(=O)(=O)c3ccc(C(=O)NC)cc3)C(C)C=C2C)cc1 (stereo not shown) [Example 5, 3,6-Dihydro-3,5-dimethyl-6-(4-ethoxyphenyl)-2-(4-methylcarbamoylbenzenesulphonyl)-2H-1,2-oxazine]
  effectiveness in treatment of migraine: particularly effective
